According to patent publication US11230526B1, “Cylcoalkenyl derivatives useful as agonists of the GPR120 and/or GPR40 receptors” (Janssen Pharmaceutica NV, priority 2018, dated 2022):
pEC50: −log10 of the molar value.

Legend:
human GPR40 = molecular target: T1, human GPR40 (Homo sapiens, UniProt O14842); assay: GPR40 calcium flux assay, human GPR40; assay type: cell-based; conditions: HEK293 cells stably expressing GPR40; table does not say human or rat
T1 construct: expressed in transfected cells
T1 sequence (O14842 whole entry): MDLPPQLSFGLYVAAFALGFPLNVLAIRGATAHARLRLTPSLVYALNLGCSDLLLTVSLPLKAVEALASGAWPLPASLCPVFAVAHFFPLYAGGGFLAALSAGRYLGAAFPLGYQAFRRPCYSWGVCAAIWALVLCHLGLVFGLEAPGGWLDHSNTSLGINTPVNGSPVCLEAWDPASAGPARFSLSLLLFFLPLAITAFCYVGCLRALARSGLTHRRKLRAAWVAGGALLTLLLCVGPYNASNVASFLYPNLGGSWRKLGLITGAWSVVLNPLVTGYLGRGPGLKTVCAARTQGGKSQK
In short: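 Cells preincubated 1 h at 37° C. in HBSS, 20 mM HEPES, 0.1% BSA, then Fluo 8 calcium dye 30 min at 37° C. and 15 min at room temperature.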

Human GPR120 short form = molecular target: T2, Human GPR120 short form (Homo sapiens, UniProt Q5NUL3); assay: Human GPR120 calcium flux assay, Procedure Calcium B (4200 cells/well); assay type: cell-based
T2 construct: expressed in transfected cells
T2 sequence (Q5NUL3 1-361): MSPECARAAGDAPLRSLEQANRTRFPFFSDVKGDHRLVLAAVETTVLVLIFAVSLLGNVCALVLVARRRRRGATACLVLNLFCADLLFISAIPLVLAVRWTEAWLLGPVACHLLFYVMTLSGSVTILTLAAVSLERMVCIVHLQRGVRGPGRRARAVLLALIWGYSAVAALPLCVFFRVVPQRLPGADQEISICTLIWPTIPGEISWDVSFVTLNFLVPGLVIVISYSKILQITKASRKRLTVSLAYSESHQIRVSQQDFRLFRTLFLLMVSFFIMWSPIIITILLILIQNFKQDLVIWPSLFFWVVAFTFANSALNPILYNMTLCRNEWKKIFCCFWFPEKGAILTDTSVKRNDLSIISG
In short: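 Agonist EC50 came from a four-parameter fit of RFU (Fmax−Fmin) read over 300 s on FLIPR. Cells were HEK293 stably transfected with human GPR120 (NM_001195755.1) at 4200 per well, serum-starved 1 h and loaded with Fluo-4 NW dye with probenecid before ligand addition.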

| SMILES | pEC50 (human GPR40) | pEC50 (Human GPR120 short form) |
| --- | --- | --- |
| CC(C)CC1=C(COc2ccc(CCC(=O)O)c(C(F)(F)F)c2)CCC1 [Compound 385, 3-(4-((2-isobutylcyclopent-1-en-1-yl)methoxy)-2-(trifluoromethyl)phenyl)Propanoic Acid] | 7.92 | 6.15 |
| CC(C)C1=C(COc2ccc(CCC(=O)O)c(C(F)(F)F)c2)CCCC1 [Compound 586, 3-[4-[(2-isopropylcyclohexen-1-yl)methoxy]-2-(trifluoromethyl)phenyl]Propanoic Acid] | 7.28 | 6.04 |
| Cc1cc(CCC(=O)O)ccc1OCC1=C(Cc2ccccc2)CCC1 [Compound 315, 3-[4-[(2-benzylcyclopenten-1-yl)methoxy]-3-methyl-phenyl]Propanoic Acid] | < 5.30 | 6.73 |
| O=C(O)CCc1ccc(OCC2=C(C3CCCC3)CCCC2)cc1Cl [Compound 594, 3-[2-chloro-4-[(2-cyclopentylcyclohexen-1-yl)methoxy]phenyl]Propanoic Acid] | < 5.00 | 6.44 |
| [2H]C([2H])([2H])c1ccc(C2=C(COc3ccc(CCC(=O)O)c(Cl)c3)CCC2)cc1 [Compound 302-D, 3-[2-chloro-4-[[2-[4-(trideuteriomethyl)phenyl]cyclopenten-1-yl]methoxy]phenyl]Propanoic Acid] | 6.02 | 6.80 |
| O=C(O)CCc1ccc(OCC2=C(c3ccc(F)cc3)CCC2)cc1C(F)(F)F [Compound 240, 3-[4-[[2-(4-fluorophenyl)cyclopenten-1-yl]methoxy]-2-(trifluoromethyl)phenyl]Propanoic Acid] | 6.73 | 6.41 |
| N#Cc1cc(OCC2=C(c3ccc(F)cc3)CC(F)(F)C2)ccc1CCC(=O)O [Compound 207, 3-[2-cyano-4-[[4,4-difluoro-2-(4-fluorophenyl)cyclopenten-1-yl]methoxy]phenyl]Propanoic Acid] | 5.92 | 5.68 |
| Cc1ccc(C2=C(COc3ccc(CCC(=O)O)c(Cl)c3)CC(F)(F)C2)cc1 [Compound 250, 3-[2-chloro-4-[[4,4-difluoro-2-(p-tolyl)cyclopenten-1-yl]methoxy]phenyl]Propanoic Acid] | 5.83 | 7.12 |
| CCC1CCC(COc2ccc(CCC(=O)O)c(C)c2C)=C1c1ccc(Cl)cc1 (stereo not drawn) [Compound 6, 3-[4-[[2-(4-chlorophenyl)-3-ethyl-cyclopenten-1-yl]methoxy]-2,3-dimethyl-phenyl]Propanoic Acid] | < 5.30 | < 5.30 |
| CC(C)CC1=C(COc2ccc(CCC(=O)O)cc2)CCCC1 [Compound 578, 3-[4-[(2-isobutylcyclohexen-1-yl)methoxy]phenyl]Propanoic Acid] | 5.67 | 5.75 |
| Cc1c(CCC(=O)O)ccc(OCC2=C(c3ccc(Cl)cc3)CCC(C)(C)C2)c1C [Compound 541, 3-[4-[[2-(4-chlorophenyl)-5,5-dimethyl-cyclohexen-1-yl]methoxy]-2,3-dimethyl-phenyl]Propanoic Acid] | 5.32 | 5.82 |
| CC1CCC(COc2ccc(CCC(=O)O)cc2)=C1c1ccc(Cl)cc1 (stereo not drawn) [Compound 328, 3-[4-[[2-(4-chlorophenyl)-3-methyl-cyclopenten-1-yl]methoxy]phenyl]Propanoic Acid] | 6.19 | 6.51 |
| O=C(O)CCc1ccc(OCC2=C(C3CCC4CC43)CCC2)cc1C(F)(F)F (stereo not drawn) [Compound 456, 3-[4-[[2-(4-bicyclo[3.1.0]hexanyl)cyclopenten-1-yl]methoxy]-2-(trifluoromethyl)phenyl]Propanoic Acid] | 7.38 | 6.03 |
| Cc1ccc(C2=C(COc3ccc(CCC(=O)O)c(Cl)c3)CCC2)c(F)c1 [Compound 273, 3-[2-chloro-4-[[2-(2-fluoro-4-methyl-phenyl)cyclopenten-1-yl]methoxy]phenyl]Propanoic Acid] | 5.98 | 6.67 |
| Cc1ccc(C2=C(COc3ccc(CCC(=O)O)c(C(F)(F)F)c3)CC(F)(F)C2)cc1 [Compound 249, 3-[4-[[4,4-difluoro-2-(p-tolyl)cyclopenten-1-yl]methoxy]-2-(trifluoromethyl)phenyl]Propanoic Acid] | 6.33 | 6.76 |
| O=C(O)CCc1ccc(OCC2=C(Cc3ccccc3F)CCC2)cc1Cl [Compound 438, 3-[2-chloro-4-[[2-[(2-fluorophenyl)methyl]cyclopenten-1-yl]methoxy]phenyl]Propanoic Acid] | 6.86 | 5.48 |
| O=C(O)CCc1ccc(OCC2=C(C3C=CCC3)CCC2)cc1 (stereo not drawn) [Compound 452, 3-[4-[(2-cyclopent-2-en-1-ylcyclopenten-1-yl)methoxy]phenyl]Propanoic Acid] | 6.77 | 6.90 |

| SMILES | pEC50 (human GPR40) | pEC50 (Human GPR120 short form) |
| --- | --- | --- |
| Cc1ccc(C2=C(COc3ccc(CCC(=O)O)cc3C)CCC2)o1 [Compound 211, 3-[3-methyl-4-[[2-(5-methyl-2-furyl)cyclopenten-1-yl]methoxy]phenyl]Propanoic Acid] | < 5.30 | 6.52 |
| COc1ccc(C2=C(COc3cc(C)c(CCC(=O)O)cc3F)CCC2)c(C)c1 [Compound 278, 3-[5-fluoro-4-[[2-(4-methoxy-2-methyl-phenyl)cyclopenten-1-yl]methoxy]-2-methyl-phenyl]Propanoic Acid] | 6.52 | < 5.30 |
| O=C(O)CCc1ccc(OCC2=C(Cc3ccccc3)CCCC2)cc1Cl [Compound 582, 3-[4-[(2-benzylcyclohexen-1-yl)methoxy]-2-chloro-phenyl]Propanoic Acid] | 7.11 | 5.92 |
| CCC(CC)C1=C(COc2ccc(CCC(=O)O)c(C(F)(F)F)c2)CCC1 [Compound 380, 3-[4-[[2-(1-ethylpropyl)cyclopenten-1-yl]methoxy]-2-(trifluoromethyl)phenyl]Propanoic Acid] | 7.08 | < 5.30 |
| CCCCC1=C(COc2ccc(CCC(=O)O)c(Cl)c2)CCCC1 [Compound 583, 3-[4-[(2-butylcyclohexen-1-yl)methoxy]-2-chloro-phenyl]Propanoic Acid] | 6.53 | 6.12 |
| O=C(O)CCc1ccc(OCC2=C(C3CCCC3)CCC2)c(F)c1 [Compound 425, 3-[4-[(2-cyclopentylcyclopenten-1-yl)methoxy]-3-fluoro-phenyl]Propanoic Acid] | 5.49 | 6.84 |
| O=C(O)CCc1ccc(OCC2=C(c3ccc(C(F)(F)F)cc3)CCC2)cc1C(F)(F)F [Compound 300, 3-[2-(trifluoromethyl)-4-[[2-[4-(trifluoromethyl)phenyl]cyclopenten-1-yl]methoxy]phenyl]Propanoic Acid] | 6.71 | 5.81 |
| O=C(O)CCc1ccc(OCC2=C(C3CCCC3)CCC(F)(F)C2)cc1C(F)(F)F [Compound 606, 3-[4-[(2-cyclopentyl-5,5-difluoro-cyclohexen-1-yl)methoxy]-2-(trifluoromethyl)phenyl]Propanoic Acid] | 6.61 | 6.78 |
| O=C(O)CCc1ccc(OCC2=C(C3CCCC3)CC(F)(F)C2)cc1C(F)(F)F [Compound 407, 3-[4-[(2-cyclopentyl-4,4-difluoro-cyclopenten-1-yl)methoxy]-2-(trifluoromethyl)phenyl]Propanoic Acid] | 7.52 | 6.82 |
| O=C(O)CCc1cc(F)c(OCC2=C(C3CCCC3)CCC2)cc1C(F)(F)F [Compound 433, 3-[4-[(2-cyclopentylcyclopenten-1-yl)methoxy]-5-fluoro-2-(trifluoromethyl)phenyl]Propanoic Acid] | < 5.00 | < 5.30 |
| CCCC1=C(COc2ccc(CCC(=O)O)c(C(F)(F)F)c2)CCCC1 [Compound 590, 3-[4-[(2-propylcyclohexen-1-yl)methoxy]-2-(trifluoromethyl)phenyl]Propanoic Acid] | 6.50 | 5.87 |
| O=C(O)CCc1ccc(OCC2=C(Cc3ccccc3)CCCC2)cc1 [Compound 581, 3-[4-[(2-benzylcyclohexen-1-yl)methoxy]phenyl]Propanoic Acid] | 6.23 | 5.68 |
| O=C(O)CCc1ccc(OCC2=C(c3ccc(F)cc3)CC(F)(F)C2)cc1Cl [Compound 401, 3-[2-chloro-4-[[4,4-difluoro-2-(4-fluorophenyl)cyclopenten-1-yl]methoxy]phenyl]Propanoic Acid] | 6.51 | 6.52 |
| Cc1cc(OCC2=C(c3ccc(Cl)c(F)c3)CCC2)c(F)cc1CCC(=O)O [Compound 280, 3-[4-[[2-(4-chloro-3-fluoro-phenyl)cyclopenten-1-yl]methoxy]-5-fluoro-2-methyl-phenyl]Propanoic Acid] | 6.33 | 6.46 |
| O=C(O)CCc1ccc(OCC2=C(C3CCCC3)CCC(F)(F)CC2)cc1 [Compound 611, 3-[4-[(2-cyclopentyl-5,5-difluoro-cyclohepten-1-yl)methoxy]phenyl]Propanoic Acid] | 6.13 | 6.51 |
| CC(C)CC1=C(COc2ccc(CCC(=O)O)c(C(F)(F)F)c2)CCCC1 [Compound 579, 3-[4-[(2-isobutylcyclohexen-1-yl)methoxy]-2-(trifluoromethyl)phenyl]Propanoic Acid] | 7.12 | 6.23 |
